The values below are quoted from earlier work in patent publication US20060251750A1, “Soy formulations and their use in skin care” (priority 2002, published 2006).

One data set deals with UV radiation. The settings on record: lotions.
Another data set relates to photocarcinogenesis. As to conditions: hairless mice; both topical and oral administration.
The next data set concerns squamous cell carcinomas. As to conditions: daily topical applications of lotions.

In the case of isoequol, in the data set on UV radiation, the “inflammatory edema reactions induced by UV radiation” value (from here on “inflammatory edema reactions induced”) is “reduce” and the “suppression of contact hypersensitivity induced by UV radiation” value (“suppression” below) is reported as “reduce”.

As for `Oc1ccc(C2=Cc3ccc(O)cc3OC2)cc1` [dehydroequol], in the data set on UV radiation, the “inflammatory edema reactions induced” value is on record as “reduce” and the “suppression” value is “reduce”.

Regarding `O=c1c(-c2ccc(O)cc2)coc2cc(O)cc(O)c12` [genistein], in the data set on UV radiation, the “inflammatory edema reactions induced” value is reported as “reduce” and the “suppression” value is listed as “reduce”. Besides, in the data set on photocarcinogenesis, the “initiation and promotion of photocarcinogenesis” value is reported as “inhibit”; the “tumor incidence and multiplicity” value is on record as “reduction”.

In the case of `Oc1ccc([C@H]2COc3cc(O)ccc3C2)cc1` [equol], in the data set with UV radiation, the “inflammatory edema reactions induced” value is reported as “reduce” and the “suppression” value is on record as “reduce”. Moreover, in the data set with squamous cell carcinomas, the “proportion of tumors progressing from benign papillomas to malignant squamous cell carcinomas” value was “reduce” and the “size of these carcinomas” value is reported as “reduce”.
